US9255272B2, “Use of inhibitors of leukotriene B4 receptor BLT2 for treating asthma” (Korea University Research & Business Foundation, priority 2007, dated 2016)

Tests used:
[1] = target: eosinophil membranes (LTB4 binding); conditions: read-out: IC50 for inhibition of the binding of radiolabeled LTB4 to eosinophil membranes; cited from earlier work
eosinophil = conditions: concentration of 10 μM; cited from earlier work
BLT1 mRNA = BLT1 mRNA level in lung of OVA-challenged mice (semiquantitative RT-PCR); type: in vivo, mouse; conditions: C57BL/6 mice, 1.6 mg/kg i.v. 24 hr and 1 hr before 10% OVA challenge
Description: Female BALB/c mice and C57BL/6 mice (7 weeks old; 18-20 g) were obtained from Orientbion Inc. (Seoungnam, Korea). Sensitization and challenge were carried out as described previously with some modification (28). Briefly, female C57BL/6 mice (7 weeks old; 18-20 g) were immunized by intraperitoneal (i.p.) injection of 200 μg ovalbumin (OVA) emulsified in 2.5 mg of adjuvant aluminum hydroperoxide gel (alum) (Pierce, Rockford, Ill.). A second i.p. injection of 20 μg OVA adsorbed onto alum (2.5 mg) was administered 10 days later. After an additional 10 days, mice were exposed to an aerosol of 1% OVA in saline for 30 min daily on 3 consecutive days. On day 25, mice were finally challenged by provocation with 10% OVA aerosol. For inhibition experiments, sense or antisense BLT2 (1.6 mg/kg) was injected intravenously 24 h and then 1 h before the 10% OVA challenge. The mice were then killed on day 27 to assess asthmatic phenotypes. Antisense BLT2 oligonucleotide (5′-[…]-3′ (SEQ ID NO: 15)), sense BLT2 oligonucleotide (5′-[…]-3′ (SEQ ID NO: 16)).
Total RNA was extracted from lung samples using Easy-blue RNA extraction reagent (Intron, Korea). […] For the semiquantitative analysis of transcripts, the optimal PCR conditions were first determined by linear amplification of glyceraldehyde-3-phosphate dehydrogenase (GAPDH). […]

LTB4 = LTB4 level in BAL fluid (EIA); type: in vivo, mouse; conditions: antisense BLT2 1.6 mg/kg i.v. 24 h and 1 h before 10% OVA; 48 h
Description: Female BALB/c mice and C57BL/6 mice (7 weeks old; 18-20 g) were obtained from Orientbion Inc. (Seoungnam, Korea). Sensitization and challenge were carried out as described previously with some modification (28). Briefly, female C57BL/6 mice (7 weeks old; 18-20 g) were immunized by intraperitoneal (i.p.) injection of 200 μg ovalbumin (OVA) emulsified in 2.5 mg of adjuvant aluminum hydroperoxide gel (alum) (Pierce, Rockford, Ill.). A second i.p. injection of 20 μg OVA adsorbed onto alum (2.5 mg) was administered 10 days later. After an additional 10 days, mice were exposed to an aerosol of 1% OVA in saline for 30 min daily on 3 consecutive days. On day 25, mice were finally challenged by provocation with 10% OVA aerosol. For inhibition experiments, sense or antisense BLT2 (1.6 mg/kg) was injected intravenously 24 h and then 1 h before the 10% OVA challenge. The mice were then killed on day 27 to assess asthmatic phenotypes. […]
Levels of LTB4 were quantified with the leukotriene B4 enzyme immunoassay (EIA) Biotrak™ system (Amersham Biosciences, UK). […] Substrate (tetramethylbenzidine) was then added, and the reaction was stopped by adding an acid solution and the color read at 450 nm in a spectrophotometer. […] Statistical significance of differences between groups was assessed by analysis of variance, and P<0.05 was considered significant.

Rac = assay: Endogenous Rac expression in lung tissue (Western blot); type: in vivo, mouse; conditions: oligonucleotides injected into tail veins, mice sacrificed after 12 hr
Text: FIGS. 10a and 10b show activation of Rac in the lung tissue by OVA provocation and inhibition of endogenous Rac expression by antisense Rac oligonucleotide treatment. Lung samples were homogenized with micropestle and washed with PBS twice. FIG. 10a depicts Western blot analysis of Rac expression in mouse model of asthma. For membrane protein preparation, cells were suspended in Buffer A and cells were ruptured by passing through 21-G syringe. After ultracentrifugation, protein samples in pelleted membrane fraction were dissolved with buffer A containing 1% Triton X-100. FIG. 10b depicts Western blot analysis of Rac expression in mouse model of asthma administered with asRac. For whole cell lysate preparation, cells from the lung tissues of buffer, control Rac oligonucleotide or antisense Rac oligonucleotide injected mice were suspended with lysis buffer and incubated for 20 min. After centrifugation of the samples, protein quantification was carried out using Bradford reagent and Western blot analysis was performed.
Oligonucleotides, from Genotech Co. (Korea), were synthesized with a phosphorothioate backbone to improve the resistance to endonuclease. The antisense oligonucleotide consisted of 17 nucleotides analogues to the 5′ end of the murine Rac mRNA sequence, which spans the translation initiation site. […]

CCc1cc(C(C)=O)c(O)cc1OCCCCCC(C)(C)c1nnn[nH]1 [LY255283, 1-[5-ethyl-2-hydroxy-4-[[6-methyl-6-(1H-tetrazol-5-yl)heptyl]oxy]phenyl]-ethanone, reference compound]
IC50 [1]: 260 nM | inhibition of eosinophil chemotaxis (eosinophil): 80%

antisense BLT2: Antisense BLT2 oligonucleotide 5′-GCTCAGTAGTGTCTCATTCC-3′ (SEQ ID NO: 15) (listed as DNA, chemistry not fully specified)
BLT1 expression in the lung (mRNA) (BLT1 mRNA): without interfering | suppression of the level of LTB4 in BAL fluid (LTB4): −72%

antisense Rac: phosphorothioate 17-mer to the 5′ end of murine Rac mRNA, 5′-CACTTGATGGCCTGCAT-3′ (SEQ ID NO: 22) (listed as DNA, chemistry not fully specified)
endogenous expression of Rac in the lung tissues (Rac): inhibited
